{
  "source": "patent EP0349354A1",
  "about": "“Peptides PF10 to PF19 from a retro virus HIV, method for the synthesis of these peptides and their use, particularly in diagnostics” (INSTITUT PASTEUR, priority 1988, dated 1990)",
  "system": "anticorps anti-nef",
  "assay": "ELISA for detection of anti-nef antibodies on coated peptides or nef",
  "format": "binding, humain",
  "protocol": "Des plaques de microtitration à 96 puits ont été recouvertes une nuit avec 500 ng de protéine nef bactérienne, à 37°C ou avec 500 ng de peptides synthétiques par puits dans 50µl de PBS à pH 7,4. Après saturation avec 400 µl de PBS pH 7,4, contenant 5% de caséine, durant 1 heure à 37°C et lavage avec PBS à pH 7,4, 0,5% de BSA, 0,01% tween, 50 µl de sérums à différentes dilutions ont été ajoutés pendant 2 heures à 37°C. Après le rinçage, 50µl de complexes d'IgG de souris anti-humaine-(H + L)-peroxydase 1:1000 ont été incubés pendant 1 heure à 37°C. Après un nouveau rinçage, 100µl de OPD ont été ajoutés pendant 30mn à température ambiante dans l'obscurité. La réaction de l'enzyme a été arrêtée par addition de 50µl d'acide sulfurique 4N et la densité optique des plaques a été lue à 492 nm/620 nm. Les plaques recouvertes avec la caséine ont été utilisées comme contrôle négatif.\nEn vue d'étudier la possibilité d'utiliser des peptides synthétiques en tant qu'antigènes pour la détection d'anticorps anti-nef chez des patients infectés par HIV, 8 peptides synthétiques couvrant la totalité de la séquence de la protéine nef de HIV-1 (figure 4) ont été utilisés dans un test ELISA avec 31 sérums anti-nef positifs et 2 sérums anti-nef négatifs utilisés comme contrôle. Les recombinants nef ont été utilisés comme contrôle positif dans les tests ELISA et la caséine a été utilisée comme contrôle négatif. Les résultats de ces expériences sont donnés dans le tableau 4 qui illustre l'essai suivant: Essai ELISA sur 31 sérums anti-nef-positifs et 2 sérums anti-nef- négatifs, soit pré-recouverts avec des peptides synthétiques (PF 11 à PF 18), soit en utilisant nef, la caséine ou un mélange de peptides PF 12 et PF 17. Les sérums ont été sélectionnés au hasard parmi des sérums anti-nef positifs et anti-nefs négatifs testés par la méthode RIA en utilisant ¹²⁵I nef. L'intensité de l'immunoradioactivité est notée \"-\" pour une densité optique (OD) inférieure à 0,2; \"+\" pour OD = 0,2 à 0,4; \"++\" pour OD = 0,4 à 0,8 et \"+++\" pour OD = 0,8 à 2,0.",
  "data": [
    {"sequence": "XCGYFPDWQNYTPGPGVRYPLTFGWCYKLVPVEPDKVEEANKGENTSLL HPVZ [PF15, protéine F HIV-1, séquence 118-167]", "values": [
      {"measurement": "nombre de sérums anti-nef positifs ayant réagi", "setting": "ELISA, out of 31 anti-nef positive sera", "result": 4},
      {"measurement": "intensité de l'immunoréactivité (OD), Serum 1", "setting": "Serum 1, anti-nef positive, 500 ng coated per well", "result": "- (pour une densité optique (OD) inférieure à 0,2)"},
      {"measurement": "intensité de l'immunoréactivité (OD), Serum 2", "setting": "Serum 2, anti-nef positive, 500 ng coated per well", "result": "- (pour une densité optique (OD) inférieure à 0,2)"},
      {"measurement": "intensité de l'immunoréactivité (OD), Serum 3", "setting": "Serum 3, anti-nef positive, 500 ng coated per well", "result": "- (pour une densité optique (OD) inférieure à 0,2)"},
      {"measurement": "intensité de l'immunoréactivité (OD), Serum 4", "setting": "Serum 4, anti-nef positive, 500 ng coated per well", "result": "- (pour une densité optique (OD) inférieure à 0,2)"},
      {"measurement": "intensité de l'immunoréactivité (OD), Serum 5", "setting": "Serum 5, anti-nef positive, 500 ng coated per well", "result": "+ (pour OD = 0,2 à 0,4)"},
      {"measurement": "intensité de l'immunoréactivité (OD), Serum 6", "setting": "Serum 6, anti-nef positive, 500 ng coated per well", "result": "+ (pour OD = 0,2 à 0,4)"},
      {"measurement": "intensité de l'immunoréactivité (OD), Serum 7", "setting": "Serum 7, anti-nef positive, 500 ng coated per well", "result": "- (pour une densité optique (OD) inférieure à 0,2)"},
      {"measurement": "intensité de l'immunoréactivité (OD), Serum 8", "setting": "Serum 8, anti-nef positive, 500 ng coated per well", "result": "- (pour une densité optique (OD) inférieure à 0,2)"},
      {"measurement": "intensité de l'immunoréactivité (OD), Serum 9", "setting": "Serum 9, anti-nef positive, 500 ng coated per well", "result": "- (pour une densité optique (OD) inférieure à 0,2)"},
      {"measurement": "intensité de l'immunoréactivité (OD), Serum 10", "setting": "Serum 10, anti-nef positive, 500 ng coated per well", "result": "- (pour une densité optique (OD) inférieure à 0,2)"},
      {"measurement": "intensité de l'immunoréactivité (OD), Serum 11", "setting": "Serum 11, anti-nef positive, 500 ng coated per well", "result": "- (pour une densité optique (OD) inférieure à 0,2)"},
      {"measurement": "intensité de l'immunoréactivité (OD), Serum 12", "setting": "Serum 12, anti-nef positive, 500 ng coated per well", "result": "- (pour une densité optique (OD) inférieure à 0,2)"},
      {"measurement": "intensité de l'immunoréactivité (OD), Serum 13", "setting": "Serum 13, anti-nef positive, 500 ng coated per well", "result": "- (pour une densité optique (OD) inférieure à 0,2)"},
      {"measurement": "intensité de l'immunoréactivité (OD), Serum 14", "setting": "Serum 14, anti-nef positive, 500 ng coated per well", "result": "- (pour une densité optique (OD) inférieure à 0,2)"},
      {"measurement": "intensité de l'immunoréactivité (OD), Serum 15", "setting": "Serum 15, anti-nef positive, 500 ng coated per well", "result": "- (pour une densité optique (OD) inférieure à 0,2)"},
      {"measurement": "intensité de l'immunoréactivité (OD), Serum 16", "setting": "Serum 16, anti-nef positive, 500 ng coated per well", "result": "- (pour une densité optique (OD) inférieure à 0,2)"},
      {"measurement": "intensité de l'immunoréactivité (OD), Serum 17", "setting": "Serum 17, anti-nef positive, 500 ng coated per well", "result": "- (pour une densité optique (OD) inférieure à 0,2)"},
      {"measurement": "intensité de l'immunoréactivité (OD), Serum 18", "setting": "Serum 18, anti-nef positive, 500 ng coated per well", "result": "- (pour une densité optique (OD) inférieure à 0,2)"},
      {"measurement": "intensité de l'immunoréactivité (OD), Serum 19", "setting": "Serum 19, anti-nef positive, 500 ng coated per well", "result": "++ (pour OD = 0,4 à 0,8)"},
      {"measurement": "intensité de l'immunoréactivité (OD), Serum 20", "setting": "Serum 20, anti-nef positive, 500 ng coated per well", "result": "- (pour une densité optique (OD) inférieure à 0,2)"},
      {"measurement": "intensité de l'immunoréactivité (OD), Serum 21", "setting": "Serum 21, anti-nef positive, 500 ng coated per well", "result": "- (pour une densité optique (OD) inférieure à 0,2)"},
      {"measurement": "intensité de l'immunoréactivité (OD), Serum 22", "setting": "Serum 22, anti-nef positive, 500 ng coated per well", "result": "++ (pour OD = 0,4 à 0,8)"},
      {"measurement": "intensité de l'immunoréactivité (OD), Serum 23", "setting": "Serum 23, anti-nef positive, 500 ng coated per well", "result": "- (pour une densité optique (OD) inférieure à 0,2)"},
      {"measurement": "intensité de l'immunoréactivité (OD), Serum 24", "setting": "Serum 24, anti-nef positive, 500 ng coated per well", "result": "- (pour une densité optique (OD) inférieure à 0,2)"},
      {"measurement": "intensité de l'immunoréactivité (OD), Serum 25", "setting": "Serum 25, anti-nef positive, 500 ng coated per well", "result": "- (pour une densité optique (OD) inférieure à 0,2)"},
      {"measurement": "intensité de l'immunoréactivité (OD), Serum 26", "setting": "Serum 26, anti-nef positive, 500 ng coated per well", "result": "- (pour une densité optique (OD) inférieure à 0,2)"},
      {"measurement": "intensité de l'immunoréactivité (OD), Serum 27", "setting": "Serum 27, anti-nef positive, 500 ng coated per well", "result": "- (pour une densité optique (OD) inférieure à 0,2)"},
      {"measurement": "intensité de l'immunoréactivité (OD), Serum 28", "setting": "Serum 28, anti-nef positive, 500 ng coated per well", "result": "- (pour une densité optique (OD) inférieure à 0,2)"},
      {"measurement": "intensité de l'immunoréactivité (OD), Serum 29", "setting": "Serum 29, anti-nef positive, 500 ng coated per well", "result": "- (pour une densité optique (OD) inférieure à 0,2)"},
      {"measurement": "intensité de l'immunoréactivité (OD), Serum 30", "setting": "Serum 30, anti-nef positive, 500 ng coated per well", "result": "- (pour une densité optique (OD) inférieure à 0,2)"},
      {"measurement": "intensité de l'immunoréactivité (OD), Serum 31", "setting": "Serum 31, anti-nef positive, 500 ng coated per well", "result": "- (pour une densité optique (OD) inférieure à 0,2)"},
      {"measurement": "intensité de l'immunoréactivité (OD), Serum 32", "setting": "Serum 32, anti-nef negative control serum, 500 ng coated per well", "result": "- (pour une densité optique (OD) inférieure à 0,2)"},
      {"measurement": "intensité de l'immunoréactivité (OD), Serum 33", "setting": "Serum 33, anti-nef negative control serum, 500 ng coated per well", "result": "- (pour une densité optique (OD) inférieure à 0,2)"}
    ]}
  ]
}
